Assay results: patent US12679878B2, “CRF2 receptor agonists and their use in therapy” (SANOFI, priority 2020, dated 2026)
Starred links: 1 amine or outer side, 2 acyl side, 3 side chain; linkers in the order of their positions; H or OH if unused. Non-standard residues stand in square brackets, D forms with d. Residues, ends and D or L forms follow the SMILES beside them. Groups on a side chain read outwards from the residue. *: point of attachment. C18 diacid = O=C(O)CCCCCCCCCCCCCCCCC(=O)*; γGlu = O=C(O)[C@H](CCC(=O)[*:2])N[*:1]; AEEA = NCCOCCOCC(=O)O; Aib = CC(C)(N)C(=O)O

The compounds below were run against T1, human CRF2α receptor (Homo sapiens, UniProt Q13324) (assay: cAMP agonism at human CRF2 α receptor in TeloHEAC cells (Example 7)). Details: cAMP HTRF, TeloHEAC cells stably expressing human CRF2 α, 0% HSA; read-out: EC50 [nM], 0% HSA.
T1 construct: expressed in transfected cells; host or cells: TeloHEAC
T1 sequence (Q13324 1-411): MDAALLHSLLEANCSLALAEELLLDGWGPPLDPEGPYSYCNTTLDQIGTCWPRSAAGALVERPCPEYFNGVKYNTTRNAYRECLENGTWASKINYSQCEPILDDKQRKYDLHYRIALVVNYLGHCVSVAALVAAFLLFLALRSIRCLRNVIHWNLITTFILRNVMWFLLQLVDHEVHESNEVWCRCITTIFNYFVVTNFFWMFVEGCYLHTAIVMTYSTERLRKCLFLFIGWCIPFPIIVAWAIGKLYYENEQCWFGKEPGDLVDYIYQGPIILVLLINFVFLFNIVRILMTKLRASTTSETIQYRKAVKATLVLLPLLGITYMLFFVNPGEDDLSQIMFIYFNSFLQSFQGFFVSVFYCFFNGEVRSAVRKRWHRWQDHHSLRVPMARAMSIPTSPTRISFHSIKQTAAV
Assay type: cell-based
Experimental: Agonism of compounds for human corticotropin-releasing factor 2α (CRF2 α receptor) was determined by functional assays measuring CAMP response of a TeloHEAC cell line stably expressing human CRF2 α receptor.
Cells were grown in a T175 culture flask placed at 37° C. to near confluence in medium (DMEM/10% FBS) and collected in 2 ml vials in cell culture medium containing 10% DMSO in a concentration of 10-50 million cells/ml. Each vial contained 1.8 ml cells. The vials were slowly frozen to −80° C. in isopropanol and then transferred in liquid nitrogen for storage. Prior to use, frozen cells were thawed quickly at 37° C. and washed (5 min at 900 rpm) with 20 ml cell buffer (1×HBSS; 20 mM HEPES; 0% or 0.1% HSA). Cells were resuspended in assay buffer (cell buffer plus 2 mM IBMX) and adjusted to a cell density of 1 million cells/ml. For measurement, 5 μl cells (final […]) and 5 μL of test compound were added to a 384-well plate, followed by incubation for 30 minutes at room temperature.
The CAMP content of cells was determined using a kit from Cisbio Corp. (cat. no. 62AM4PEC) based on HTRF (Homogenous Time Resolved Fluorescence). After addition of HTRF reagents diluted in lysis buffer (kit components), the plates were incubated for 1 h, followed by measurement of the fluorescence ratio at 665/620 nm. The percent activity value (E %) was calculated by setting 1000 nM of urocortin 2 (UCN2) as 100%. The in vitro potency of the compounds was quantified by determining the concentrations that caused 50% activation of maximal response (EC50).

SMILES	EC50
CC[C@H](C)[C@H](NC(=O)[C@H](CCC(N)=O)NC(=O)[C@H](CCCCN)NC(=O)[C@H](CC(N)=O)NC(=O)[C@@H](NC(=O)[C@H](CCCCN)NC(=O)[C@H](C)NC(=O)[C@H](CCCCN)NC(=O)[C@H](CCC(N)=O)NC(=O)[C@H](CCCNC(=N)N)NC(=O)[C@H](CCC(N)=O)NC(=O)[C@H](CCCCN)NC(=O)[C@H](CCCCN)NC(=O)[C@H](CCC(N)=O)NC(=O)[C@H](CCCCN)NC(=O)[C@H](CCC(=O)O)NC(=O)[C@H](CCC(N)=O)NC(=O)[C@H](CCCCN)NC(=O)[C@H](CC(C)C)NC(=O)[C@H](CC(C)C)NC(=O)[C@H](CCCCN)NC(=O)[C@H](CCC(N)=O)NC(=O)[C@H](CCCCNC(=O)COCCOCCNC(=O)COCCOCCNC(=O)CC[C@H](NC(=O)CCCCCCCCCCCCCCCCC(=O)O)C(=O)O)NC(=O)[C@@H](NC(=O)[C@H](CCCCN)NC(=O)[C@@H](NC(=O)[C@@H]1CCCN1C(=O)[C@@H](NC(=O)[C@H](CC(=O)O)NC(=O)[C@H](CC(C)C)NC(=O)[C@H](CO)NC(=O)[C@H](CC(C)C)NC(=O)[C@@H](NC(=O)[C@@H](N)Cc1ccccc1)[C@@H](C)O)C(C)C)[C@@H](C)O)[C@@H](C)CC)[C@@H](C)O)C(=O)N[C@@H](CC(C)C)C(=O)N[C@@H](CCC(=O)O)C(=O)N[C@@H](CCC(N)=O)C(=O)N[C@H](C(N)=O)C(C)C [compound 34] (H-FTLSLDVPTKIK([AEEA-AEEA-γGlu-C18 diacid])QKLLKQEKQKKQRQKAKTNKQILEQV-NH2; N-terminus assumed)	6.88 nM
CC[C@H](C)[C@H](N)C(=O)N[C@H](C(=O)N[C@@H](CC(C)C)C(=O)N[C@@H](CO)C(=O)N[C@@H](CC(C)C)C(=O)N[C@@H](CC(=O)O)C(=O)N[C@H](C(=O)N1CCC[C@H]1C(=O)N[C@H](C(=O)N[C@@H](CCCCN)C(=O)N[C@@H](CC(C)C)C(=O)N[C@@H](CCCCNC(=O)COCCOCCNC(=O)COCCOCCNC(=O)CC[C@H](NC(=O)CCCCCCCCCCCCCCCCC(=O)O)C(=O)O)C(=O)N[C@@H](CCC(N)=O)C(=O)N[C@@H](CCCCN)C(=O)N[C@@H](CC(C)C)C(=O)N[C@@H](CC(C)C)C(=O)N[C@@H](CCCCN)C(=O)N[C@@H](CCC(N)=O)C(=O)N[C@@H](CCC(=O)O)C(=O)N[C@@H](CCCNC(=N)N)C(=O)N[C@@H](CCC(N)=O)C(=O)N[C@@H](CCCNC(=N)N)C(=O)N[C@@H](CCCCN)C(=O)N[C@@H](CCC(=O)O)C(=O)N[C@@H](CCCNC(=N)N)C(=O)N[C@@H](CCC(N)=O)C(=O)N[C@@H](CCC(N)=O)C(=O)N[C@@H](C)C(=O)N[C@@H](CCC(=O)O)C(=O)N[C@H](C(=O)N[C@@H](CC(N)=O)C(=O)N[C@@H](CCCCN)C(=O)N[C@@H](CCCNC(=N)N)C(=O)N[C@H](C(=O)N[C@@H](CC(C)C)C(=O)N[C@@H](CCC(=O)O)C(=O)N[C@@H](CCCNC(=N)N)C(=O)N[C@H](C(N)=O)C(C)C)[C@@H](C)CC)[C@@H](C)O)[C@@H](C)O)C(C)C)C(C)C [compound 37] (H-IVLSLDVPTKLK([AEEA-AEEA-γGlu-C18 diacid])QKLLKQERQRKERQQAETNKRILERV-NH2; N-terminus assumed)	1.6 nM
CC[C@H](C)[C@H](N)C(=O)N[C@H](C(=O)N[C@@H](CC(C)C)C(=O)N[C@@H](CO)C(=O)N[C@@H](CC(C)C)C(=O)N[C@@H](CC(=O)O)C(=O)N[C@H](C(=O)N1CCC[C@H]1C(=O)N[C@H](C(=O)N[C@@H](CCCCN)C(=O)N[C@@H](CC(C)C)C(=O)N[C@@H](CCCCNC(=O)COCCOCCNC(=O)COCCOCCNC(=O)CC[C@H](NC(=O)CCCCCCCCCCCCCCCCC(=O)O)C(=O)O)C(=O)N[C@@H](CCC(N)=O)C(=O)N[C@@H](CCCCN)C(=O)N[C@@H](CC(C)C)C(=O)N[C@@H](CC(C)C)C(=O)N[C@@H](CCCCN)C(=O)N[C@@H](CCC(N)=O)C(=O)N[C@@H](CCC(=O)O)C(=O)N[C@@H](CCCNC(=N)N)C(=O)N[C@@H](CCC(N)=O)C(=O)N[C@@H](CCCNC(=N)N)C(=O)NC(C)(C)C(=O)N[C@@H](CCC(=O)O)C(=O)N[C@@H](CCCNC(=N)N)C(=O)N[C@@H](CCC(N)=O)C(=O)N[C@@H](CCC(N)=O)C(=O)N[C@@H](C)C(=O)N[C@@H](CCC(=O)O)C(=O)N[C@H](C(=O)N[C@@H](CC(N)=O)C(=O)N[C@@H](CCCCN)C(=O)N[C@@H](CCCNC(=N)N)C(=O)N[C@H](C(=O)N[C@@H](CC(C)C)C(=O)N[C@@H](CCC(=O)O)C(=O)N[C@@H](CCCNC(=N)N)C(=O)N[C@H](C(N)=O)C(C)C)[C@@H](C)CC)[C@@H](C)O)[C@@H](C)O)C(C)C)C(C)C [compound 38] (H-IVLSLDVPTKLK([AEEA-AEEA-γGlu-C18 diacid])QKLLKQERQR[Aib]ERQQAETNKRILERV-NH2)	20.9 nM
CC[C@H](C)[C@H](N)C(=O)N[C@H](C(=O)N[C@@H](CC(C)C)C(=O)N[C@@H](CO)C(=O)N[C@@H](CC(C)C)C(=O)N[C@@H](CC(=O)O)C(=O)N[C@H](C(=O)N1CCC[C@H]1C(=O)N[C@H](C(=O)N[C@@H](CCCCN)C(=O)N[C@@H](CC(C)C)C(=O)N[C@@H](CCCCNC(=O)COCCOCCNC(=O)COCCOCCNC(=O)CC[C@H](NC(=O)CCCCCCCCCCCCCCCCC(=O)O)C(=O)O)C(=O)N[C@@H](CCC(N)=O)C(=O)N[C@H](C(=O)N[C@@H](CC(C)C)C(=O)N[C@@H](CC(C)C)C(=O)N[C@@H](CCC(=O)O)C(=O)N[C@@H](CCC(N)=O)C(=O)N[C@@H](CCC(=O)O)C(=O)N[C@@H](CCCNC(=N)N)C(=O)N[C@@H](CCC(N)=O)C(=O)N[C@@H](CCCNC(=N)N)C(=O)N[C@@H](CCCCN)C(=O)N[C@@H](CCC(=O)O)C(=O)N[C@@H](CCCNC(=N)N)C(=O)N[C@@H](CCC(N)=O)C(=O)N[C@@H](CCC(N)=O)C(=O)N[C@@H](C)C(=O)N[C@@H](CCC(=O)O)C(=O)N[C@H](C(=O)N[C@@H](CC(N)=O)C(=O)N[C@H](C(=O)N[C@@H](CCC(N)=O)C(=O)N[C@H](C(=O)N[C@@H](CC(C)C)C(=O)N[C@@H](C)C(=O)N[C@@H](CCC(N)=O)C(=O)N[C@H](C(N)=O)C(C)C)[C@@H](C)CC)C(C)C)[C@@H](C)O)[C@@H](C)CC)[C@@H](C)CC)C(C)C)C(C)C [compound 40] (H-IVLSLDVPIKLK([AEEA-AEEA-γGlu-C18 diacid])QILLEQERQRKERQQAETNVQILAQV-NH2; N-terminus assumed)	15.4 nM
CC[C@H](C)[C@H](N)C(=O)N[C@H](C(=O)N[C@@H](CC(C)C)C(=O)N[C@@H](CO)C(=O)N[C@@H](CC(C)C)C(=O)N[C@@H](CC(=O)O)C(=O)N[C@H](C(=O)N1CCC[C@H]1C(=O)N[C@H](C(=O)N[C@@H](CCCCN)C(=O)N[C@@H](CC(C)C)C(=O)N[C@@H](CCCCNC(=O)COCCOCCNC(=O)COCCOCCNC(=O)CC[C@H](NC(=O)CCCCCCCCCCCCCCCCC(=O)O)C(=O)O)C(=O)N[C@@H](CCC(N)=O)C(=O)N[C@H](C(=O)N[C@@H](CC(C)C)C(=O)N[C@@H](CC(C)C)C(=O)N[C@@H](CCC(=O)O)C(=O)N[C@@H](CCC(N)=O)C(=O)N[C@@H](CCC(=O)O)C(=O)N[C@@H](CCCNC(=N)N)C(=O)N[C@@H](CCC(N)=O)C(=O)N[C@@H](CCCNC(=N)N)C(=O)N[C@@H](CCCCN)C(=O)N[C@@H](CCC(=O)O)C(=O)N[C@@H](CCCNC(=N)N)C(=O)N[C@@H](CCC(N)=O)C(=O)N[C@@H](CCC(N)=O)C(=O)N[C@@H](C)C(=O)N[C@@H](CCC(=O)O)C(=O)N[C@@H](CCCCN)C(=O)N[C@@H](CC(N)=O)C(=O)N[C@H](C(=O)N[C@@H](CCCNC(=N)N)C(=O)N[C@H](C(=O)N[C@@H](CC(C)C)C(=O)N[C@@H](CCC(=O)O)C(=O)N[C@@H](CCCNC(=N)N)C(=O)N[C@H](C(N)=O)C(C)C)[C@@H](C)CC)C(C)C)[C@@H](C)CC)[C@@H](C)CC)C(C)C)C(C)C [compound 41] (H-IVLSLDVPIKLK([AEEA-AEEA-γGlu-C18 diacid])QILLEQERQRKERQQAEKNVRILERV-NH2; N-terminus assumed)	15.6 nM
